Like-named read-outs stand apart in the source and are kept apart here. A value given as a limit tells only on which side of the number the result lay.

Test [1] has as its system Aβ40 in conditioned medium of cells stably expressing Amyloid Precursor Protein (APP). Kind of test: In vitro BACE cell-based assay (HEK cell assay), Aβ40 sandwich ELISA. The conditions noted are these: IC50 range symbols, Table 1, Aβ40, 24 h incubation, read-out: HEK cell assay. As to the method:
In Vitro BACE Cell-Based Assay:
The cell-based assay measures inhibition or reduction of Aβ40 in conditioned medium of test compound treated cells expressing amyloid precursor protein.
Cells stably expressing Amyloid Precursor Protein (APP) were plated at a density of 40K cells/well in 96 well plates (Costar). The cells were cultivated for 24 hours at 37° C. and 5% CO2 in DMEM supplemented with 10% FBS. The test compounds were then added to cells in 10-point dose response concentrations with the starting concentration being either 100 μM or 10 μM. The compounds were diluted from stock solutions in DMSO and the final DMSO concentration of the test compounds on cells was 0.1%. After 24 h of incubation with the test compounds the supernatant conditioned media was collected and the Aβ 40 levels were determined using a sandwich ELISA. The IC50 of the compound was calculated from the percent of control or percent inhibition of Aβ 40 as a function of the concentration of the test compound.
The sandwich ELISA to detect Aβ 40 was performed in 96 well microtiter plates, which were pre-treated with goat anti-rabbit IgG (Pierce). The capture and detecting antibody pair that were used to detect Aβ 40 from cell supernatants were affinity purified pAb40 (Biosource) and biotinylated 6E10 (Signet Labs Inc.), respectively. The optimal concentration for the pAb40 antibody was 3 μg/ml in Superblock/TBS (Pierce) that was supplemented with 0.05% Tween 20 (Sigma).
Cellular supernatants were incubated with the capture antibody for 3 h at 4° C., followed by 3 wash steps in TBS-tween (0.05%). The detecting antibody incubation was for 2 h at 4° C., again followed by the wash steps as described previously. The final readout of the ELISA is Time-Resolved Fluorescence (counts per minute) using Delfia reagents Streptavidin-Europium and Enhancement solutions (Perkin Elmer) and the Victor 2 multilabel counter (Perkin Elmer).
On the technique in general: An ELISA detects its analyte on a solid surface through an enzyme-linked reagent.

In test [2] the target is BACE 1 (Beta Secretase enzyme) (Homo sapiens, UniProt P56817). The experiment in a line: In vitro enzymatic BACE FRET assay. Format: biochemical. As for the experimental part:
In Vitro Enzymatic BACE FRET (Fluorescence Resonance Energy Transfer) Assay (Enzyme Assay Data in Table 1)
The assay buffer used in this screen is 0.05 M acetate, pH 4.2, 10% DMSO final, 100 uM genapol (which is a nonionic detergent, below its Critical Micelle Concentration). […] The assay is effectively started by the addition of FRET substrate (50 nM) and the combination is incubated for one hour. The FRET assay is terminated with by addition of Tris buffer, which raises the pH to neutrality, and the fluorescence is determined. The FRET substrate is a peptide with commercially available fluorophore and quencher, on opposite sides of the BACE cleavage site.

The mark [3] stands for this setting: IC50 range symbols, Table 1, read-out: BACE 1 FRET assay.
Where [4] appears, read: bound stated, read-out: IC50 value in the FRET BACE enzyme assay.

Chain of BACE 1 (Beta Secretase enzyme) (P56817 46-501, species assumed): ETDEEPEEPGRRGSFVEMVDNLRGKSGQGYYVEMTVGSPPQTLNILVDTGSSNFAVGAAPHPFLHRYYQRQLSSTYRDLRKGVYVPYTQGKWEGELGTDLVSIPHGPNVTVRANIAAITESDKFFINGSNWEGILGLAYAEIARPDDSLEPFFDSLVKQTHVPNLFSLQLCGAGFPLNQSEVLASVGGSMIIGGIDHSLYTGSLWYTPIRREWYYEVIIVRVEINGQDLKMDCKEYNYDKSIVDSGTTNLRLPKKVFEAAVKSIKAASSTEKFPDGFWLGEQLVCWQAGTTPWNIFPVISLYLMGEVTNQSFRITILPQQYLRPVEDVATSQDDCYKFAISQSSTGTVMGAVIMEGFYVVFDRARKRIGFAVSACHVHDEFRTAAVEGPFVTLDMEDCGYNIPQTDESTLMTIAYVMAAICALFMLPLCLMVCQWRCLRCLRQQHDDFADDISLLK

Turning to `CCc1ccccc1-c1ccc2nc(N)c(CCC(=O)NCC3CCCCC3)cc2c1` [Example 49, 3-(2-amino-6-(2-ethylphenyl)quinolin-3-yl)-N-(cyclohexylmethyl)propanamide], the IC50 was 1000 to 5000 nM in test [1] (Homo sapiens, HEK293, 24 h) and below 500 nM in test [2] (setting [3]).

Regarding `CCC(Cc1cc2cc(-c3ccccc3C)ccc2nc1N)C(=O)Nc1ccccc1F` (centres unmarked) [Example 50, 2-((2-amino-6-o-tolylquinolin-3-yl)methyl)-N-(2-fluorophenyl)butanamide], the IC50 was above 5000 nM in test [1] (Homo sapiens, HEK293, 24 h) and below 500 nM in test [2] (setting [3]).

`Cc1ccccc1-c1ccc2nc(N)c(CC(C)C(=O)Nc3ccccc3)cc2c1` (centres unmarked) [Example 51, 3-(2-amino-6-o-tolylquinolin-3-yl)-2-methyl-N-phenylpropanamide]: the IC50 in test [1] (Homo sapiens, HEK293, 24 h) is 1000 to 5000 nM; in test [2] (setting [3]), below 500 nM.

For `Cc1ccc(NC(=O)CCc2cc3cc(-c4ccccc4C)ccc3nc2N)c(F)c1` [Example 53, 3-(2-amino-6-o-tolylquinolin-3-yl)-N-(2-fluoro-4-methylphenyl)propanamide], the IC50 lay within 1000 to 5000 nM in test [1] (Homo sapiens, HEK293, 24 h) and 1000 to 5000 nM in test [2] (setting [3]).

Regarding `Cc1ccccc1-c1ccc2nc(N)c(CCC(=O)NCc3ccn(C)n3)cc2c1` [Example 54, 3-(2-amino-6-o-tolylquinolin-3-yl)-N-((1-methyl-1H-pyrazol-3-yl)methyl)propanamide], the IC50 in test [1] (Homo sapiens, HEK293, 24 h) is above 5000 nM; in test [2] (setting [3]), 1000 to 5000 nM.

As to `Cc1ccccc1-c1ccc2nc(N)c(CCC(=O)NCC3(C)COC3)cc2c1` [Example 58, 3-(2-amino-6-o-tolylquinolin-3-yl)-N-((3-methyloxetan-3-yl)methyl)propanamide], the IC50 was above 5000 nM in test [1] (Homo sapiens, HEK293, 24 h) and 1000 to 5000 nM in test [2] (setting [3]).

Take `CCn1ccc(CNC(=O)CCc2cc3cc(-c4ccccc4C)ccc3nc2N)n1` [Example 59, 3-(2-amino-6-o-tolylquinolin-3-yl)-N-((1-ethyl-1H-pyrazol-3-yl)methyl)propanamide]: the IC50 in test [1] (Homo sapiens, HEK293, 24 h) is 1000 to 5000 nM; in test [2] (setting [3]), below 500 nM.

On to `CO[C@@H]1CCC[C@H]1NC(=O)CCc1cc2cc(-c3ccccc3C)ccc2nc1N` [Example 62, 3-(2-amino-6-o-tolylquinolin-3-yl)-N-((1R,2R)-2-methoxycyclopentyl)propanamide], for which the IC50 is 1000 to 5000 nM in test [1] (Homo sapiens, HEK293, 24 h) and below 500 nM in test [2] (setting [3]).

`Cc1ccccc1-c1ccc2nc(N)c(CCC(=O)NCc3nccs3)cc2c1` [Example 63, 3-(2-amino-6-o-tolylquinolin-3-yl)-N-(thiazol-2-ylmethyl)propanamide]: the IC50 was 1000 to 5000 nM in test [1] (Homo sapiens, HEK293, 24 h) and below 500 nM in test [2] (setting [3]).

Take `Cc1ccccc1-c1ccc2nc(N)c(CC(C)C(=O)NC3CCCN(C)C3)cc2c1` (centres unmarked) [Example 64, 3-(2-amino-6-o-tolylquinolin-3-yl)-2-methyl-N-(1-methylpiperidin-3-yl)propanamide]: the IC50 is below 500 nM in test [1] (Homo sapiens, HEK293, 24 h) and below 500 nM in test [2] (setting [3]).

For the molecule `Nc1nc2ccc(-c3ccc(F)cc3)cc2cc1CCC(=O)NCC1CCCCC1` [Example 65, 3-(2-amino-6-(4-fluorophenyl)quinolin-3-yl)-N-(cyclohexylmethyl)propanamide], the IC50 is above 5000 nM in test [1] (Homo sapiens, HEK293, 24 h) and below 500 nM in test [2] (setting [3]).

Turning to `Cc1ccccc1-c1ccc2nc(N)c(CCC(=O)NCc3ncco3)cc2c1` [Example 67, 3-(2-amino-6-o-tolylquinolin-3-yl)-N-(oxazol-2-ylmethyl)propanamide], the IC50 in test [1] (Homo sapiens, HEK293, 24 h) was 1000 to 5000 nM; in test [2] (setting [3]), below 500 nM.

In the case of `Cc1ccc(CNC(=O)CCc2cc3cc(-c4ccccc4C)ccc3nc2N)c(F)c1` [Example 68, N-(2-fluoro-4-methylbenzyl)-3-(2-amino-6-o-tolylquinolin-3-yl)propanamide], the IC50 is above 5000 nM in test [1] (Homo sapiens, HEK293, 24 h) and 1000 to 5000 nM in test [2] (setting [3]).

With `COC(Cc1cc2cc(-c3ccccc3C)ccc2nc1N)C(=O)NCC1CCCCC1` (centres unmarked) [Example 71, 3-(2-amino-6-o-tolylquinolin-3-yl)-N-(cyclohexylmethyl)-2-methoxypropanamide], the IC50 in test [1] (Homo sapiens, HEK293, 24 h) is 1000 to 5000 nM; in test [2] (setting [3]), below 500 nM.

As to `CC(C)c1ccccc1-c1ccc2nc(N)c(CCC(=O)NCC3CCCCC3)cc2c1` [Example 72, 3-(2-amino-6-(2-isopropylphenyl)quinolin-3-yl)-N-(cyclohexylmethyl)propanamide], the IC50 in test [1] (Homo sapiens, HEK293, 24 h) is above 5000 nM; in test [2] (setting [3]), below 500 nM.

With `COc1ccccc1[C@@H](C)NC(=O)[C@H](C)Cc1cc2cc(-c3ccccc3C)ccc2nc1N` [Example 74, (R)-3-(2-amino-6-o-tolylquinolin-3-yl)-N-((R)-1-(2-methoxyphenyl)ethyl)-2-methylpropanamide], the IC50 in test [1] (Homo sapiens, HEK293, 24 h) is above 5000 nM; in test [2] (setting [3]), 1000 to 5000 nM.

As to `COc1ccccc1[C@@H](C)NC(=O)[C@@H](C)Cc1cc2cc(-c3ccccc3C)ccc2nc1N` [Example 75, (S)-3-(2-amino-6-o-tolylquinolin-3-yl)-N-((R)-1-(2-methoxyphenyl)ethyl)-2-methylpropanamide], the IC50 is 1000 to 5000 nM in test [1] (Homo sapiens, HEK293, 24 h) and below 500 nM in test [2] (setting [3]).

With `COc1ccccc1[C@@H](C)NC(=O)C(C)Cc1cc2cc(-c3ccccc3C)ccc2nc1N` (stereo partly drawn) [Example 76, 3-(2-amino-6-o-tolylquinolin-3-yl)-N-((R)-1-(2-methoxyphenyl)ethyl)-2-methylpropanamide], the IC50 is 1000 to 5000 nM in test [1] (Homo sapiens, HEK293, 24 h) and below 500 nM in test [2] (setting [3]).

In the case of `Cc1ccccc1-c1ccc2nc(N)c(CC(C)C(=O)N[C@H](C)c3ccccc3OC(F)F)cc2c1` (stereo partly drawn) [Example 77, 3-(2-amino-6-o-tolylquinolin-3-yl)-N-((R)-1-(2-(difluoromethoxy)phenyl)ethyl)-2-methylpropanamide], the IC50 is 1000 to 5000 nM in test [1] (Homo sapiens, HEK293, 24 h) and below 500 nM in test [2] (setting [3]).

For the molecule `Cc1ccccc1-c1ccc2nc(N)c(CCC(=O)N[C@H](C)c3cccnc3)cc2c1` [Example 78, 3-(2-amino-6-o-tolylquinolin-3-yl)-N-((R)-1-(pyridin-3-yl)ethyl)propanamide], the results for the IC50 in test [1] and in test [2] (setting [3]) were above 5000 nM and 1000 to 5000 nM, respectively.

As for `Cc1ccccc1-c1ccc2nc(N)c(C[C@@H](C)C(=O)NCc3cccnn3)cc2c1` [Example 81, (R)-3-(2-amino-6-o-tolylquinolin-3-yl)-2-methyl-N-(pyridazin-3-ylmethyl)propanamide], the IC50 in test [1] (Homo sapiens, HEK293, 24 h) is 500 to 1000 nM; in test [2] (setting [3]) it was below 500 nM; in test [2] (setting [4]) it was below 50 nM.

Turning to `CC(Cc1cc2cc(-c3ncccc3Cl)ccc2nc1N)C(=O)NC[C@@H]1CCCCO1` (stereo partly drawn) [Example 82, 3-(2-amino-6-(3-chloropyridin-2-yl)quinolin-3-yl)-2-methyl-N-(((S)-tetrahydro-2H-pyran-2-yl)methyl)propanamide], the IC50 was in the range of 1000 to 5000 nM in test [1] (Homo sapiens, HEK293, 24 h) and 500 to 1000 nM in test [2] (setting [3]).

As to `CC(Cc1cc2cc(-c3ncccc3Cl)ccc2nc1N)C(=O)NC[C@H]1CCCCO1` (stereo partly drawn) [Example 83, 3-(2-amino-6-(3-chloropyridin-2-yl)quinolin-3-yl)-2-methyl-N-(((R)-tetrahydro-2H-pyran-2-yl)methyl)propanamide], the IC50 is 1000 to 5000 nM in test [1] (Homo sapiens, HEK293, 24 h) and below 500 nM in test [2] (setting [3]).

In the case of `Cc1ccccc1-c1ccc2nc(N)c(C[C@@H](C)C(=O)NCc3ccncn3)cc2c1` [Example 84, (R)-3-(2-amino-6-o-tolylquinolin-3-yl)-2-methyl-N-(pyrimidin-4-ylmethyl)propanamide], the IC50 in test [1] (Homo sapiens, HEK293, 24 h) is below 500 nM; in test [2] (setting [3]) it was below 500 nM; in test [2] (setting [4]) it was below 50 nM.

These data come from patent US9296698B2, “Amino heteroaryl compounds as beta-secretase modulators and methods of use” (Amgen Inc., priority 2009, dated 2016).
